Data on 1 molecule can be found in US6808699B2, “Methods for imaging pulmonary and cardiac vasculature and evaluating blood flow using dissolved polarized 129Xe” (Medi-Physics, Inc., priority 1998, dated 2004).

Like-named read-outs stand apart in the source and are kept apart here.

For data set [1] the following is noted: cited from earlier work; for longitudinal relaxation time T1: dissolved phase, estimated.
Data set [2] can be described thus: longitudinal relaxation time T1 of polarized 129Xe. The format is physicochemical, human. To be noted: gas in the lung, with decay due to blood uptake included. The source says: As will be appreciated by those of skill in the art, imaging with polarized dissolved gas depends on transport of sufficient surviving polarization or magnetization to tissues of interest. In a preferred embodiment, the tissues of interest include the pulmonary region, and particularly the pulmonary vasculature. As will also be appreciated by those of skill in the art, polarization decays corresponding to the longitudinal relaxation time, T1. Dissolved phase ^129Xe can have a relatively short relaxation time (T1) generally thought to be due to the presence of oxygen and due to paramagnetic deoxyhemoglobin in the blood. For example, T1 for substantially fully oxygenated human cell membranes is estimated at about 15 seconds. Alternatively, T1 in blood has also been estimated as about 5 seconds. See A. Bifone et al., 93 Proc. Natl. Acad. Sci., p. 12932 (1996). Taking the estimated upper limit of about a five second transit time to the heart as discussed above, the xenon polarization can be attenuated to about ⅓ of its starting value at the heart. This relationship supports that TR should be shortened to less than about 2.5 seconds, and preferably less than about 1-2 seconds. Correspondingly, with about a 2.5 second transit time, the magnetization can be calculated as noted above to be about 0.61 of its starting magnetization. […]

As to `[129Xe]` [^129Xe, Xenon-129], the “longitudinal relaxation time T1” value is listed as “about 5 seconds” in data set [1] (in blood, Bifone et al. 1996) and “about 15 seconds” in data set [1] (substantially fully oxygenated human cell membranes). In addition, the “gas phase T1” value in data set [1] (gas phase in the lungs, estimated from generally known oxygen related effects) is on record as “about 35 seconds”. In data set [2], the “effective T1” value was “about 33 seconds”.
